# Tested on: PBMC
# Assay: ELISPOT (IFNγ, IL-5, IL-10, IL-17, IL-21) of PBMC expanded 14 days with Bla g extract, then stimulated with peptides or peptide pools
# Format: cell-based, human
# Design: key to Average Magnitude of Response: spot forming cells (SFC) per 10^6 PBMC; Response Rate per Subject: unit not given here
# Settings: non-redundant epitopes; sensitized donors
# Procedure: PBMC Isolation and Cell Cultures: PBMC (peripheral blood mononuclear cells) were isolated from 450 mL (one unit) of blood by density gradient centrifugation as described and cryopreserved. For in vitro expansion of PBMC for peptide screening, cells were cultured in RPMI1640 (Omega Scientific)+5% human AB serum (Gemini Bioscience), GlutaMAX (Gibco), and penicillin/streptomycin (Omega Scientific) at 2×10^6 per mL, stimulated with 10 ug/mL Bla g extract (Greer), and incubated at 37° C. in 5% CO2. Every three days, IL-2 and IL-7 (10 U/mL) were added to the cultures. Cells were harvested for peptide screening at day 14.
# ELISPOT Assays: Production of IFNγ, IL-5, IL-17, IL-10, and IL-21 (as representative of TH1, TH2, TH17, TR1, and […], respectively) in response to peptide stimulation was measured by ELISPOT as described previously. […] In brief, 1×10^5 cells per well were incubated with peptide, peptide pool, or Bla g extract (10, 5, and 10 ug/ml, respectively) on anti-lymphokine antibody coated ELISPOT plates (Millipore #MSIPS4510) for 22 hours. Subsequently, secondary anti-lymphokine antibodies were added and incubated for 2 hours, washed, and avidin-peroxidase complex added for 1 hour. Plates were washed and spots developed with 3-amino-9-ethylcarbazole (Sigma #A6926) and Vector Blue (Vector #SK-5300) for IFNγ/IL-5 and IL-10/IL-17 dual plates or TMB (Sigma #T0565) for single IL-21. Criteria for peptide pool positivity were at least 100 spot forming cells (SFC) per 10^6 PBMC, p<0.05, and stimulation index≥2. Criteria for peptide positivity were identical except with a threshold of 20 SFCs.
# We synthetized overlapping peptide sets of 15 amino acids in length overlapping by 10 residues and covering the entire sequence of known Bla g Allergens, i.e. Bla g 1-7, 9 and 11, referred from hereafter collectively as BLAGA. A total of 809 BLAGA peptides were arranged in pools, encompassing on average 20 peptides.
# To assess T cell reactivity, we utilized a strategy applied to the definition of epitopes from various allergen sources^15,16 utilizing in vitro stimulation with allergen extracts. Here, PBMC from each subject were stimulated in vitro with Bla g extract. After 14 days, pools of overlapping 15-mer peptides from the BLAGA were tested for responses, and positive pools deconvoluted to identify the specific epitopes. As readout, we utilized ELISPOT assays specific for IL-5, IFNγ, IL-10, IL-17 and IL-21, chosen as representative of TH2, TH1, TR1, TH17 and TFH reactivity, respectively.
Sequence,Average Magnitude of Response,Response Rate per Subject
AAIANYHYDADENSK,26.2,11.4
AAVAYLQSDEFETIV,3.2,1.4
AGTWSALNSIQQFIS,15.7,7.1
AKGMMHMIKKGANGS,18.7,2.9
AKRFAKWALPLYNKP,12.2,1.4
ALNSIQQFISSEMVE,4.4,4.3
ALREKVLGLPAIKAW (listed as Blattella germanica),77.1,12.9
AQIQVVIHLDEQYIY,4.6,5.7
ARYFLERLSNDLPDV,3.5,2.9
ATDYENYAIVEGCPA,32.7,1.4
AVLALCATDTLANED,3.0,2.9
CATDTLANEDCFRHE,3.2,2.9
CPTNLGTTVRASVRI,11.2,4.3
DCGVAGFRVDAAKHM,3.9,2.9
DENSKQKKWDPLKKE,10.3,5.7
DKKVYRVFESTVTGR,4.4,2.9
DPSIHVLKMVAELTH,3.4,1.4
DRKMYWQFKMDKIQI (listed as Blattella germanica),78.8,5.7
DRRGEMFYYTRQQLY,3.5,1.4
DVLDIGGLKVQKQTF,3.5,2.9
DVLQWQTIPYTTIHN,15.9,2.9
EAGFAKLAASDSKSL,16.0,7.1

Sequence,Average Magnitude of Response,Response Rate per Subject
EIDGKQTHQSVAISR,3.8,4.3
EMIQHYTLDQVNQHK,3.5,2.9
ERYQLVSYNLNSRSG,3.4,1.4
EVVKANGGYLAAGKL,4.6,5.7
FGSTLLDVIQSGLEN,26.1,8.6
FLLSYGEKDFEDYRF,8.5,8.6
FQINLDFKNHNGFIR,52.0,1.4
FRKFSNNFEFSYLLG,3.3,1.4
FRPWWERYQLVSYNL,10.8,4.3
FSQMYHAQLAFSTAF,3.4,2.9
FYTEFDMENNRVGFA,11.3,2.9
GASILTYKTSKLYKM,19.3,7.1
GEKDFEDYRFQEGDW,12.0,8.6
GEPIRFLLSYGEKDF,3.3,2.9
GHSHFVSDVVLSSDG,9.6,2.9
GIRIYVDVVLNQMSG (listed as Blattella germanica),62.5,4.3
GKDYILRVSQLGHTV,3.4,4.3
GQEYTFYVIVTPYAK,3.2,2.9
GVTPVFYNMVKQGLV,20.8,1.4
HDDRLGFLTFCPTNL (listed as Blattella germanica),83.1,7.1
HGRTFSSLFQVANQY,8.4,4.3
HHQRLFMVQSLERVV,3.1,2.9

Sequence,Average Magnitude of Response,Response Rate per Subject
HMAKEDLVANQPNLK (listed as Blattella germanica),68.8,4.3
HTKLSSSSSITLTLP,6.2,5.7
HYQFDSIHKFEFASK,24.4,1.4
IAGPVSEVTALNRQI,3.3,2.9
IDDIIAILPVDDLYA,6.6,2.9
IHENLIVTSPFRPWW,9.3,2.9
IQGKFGLDATAVGDE,6.9,1.4
IRFSVRRFHPKLGDK,5.8,2.9
IRGRTKFEGNKFTID (listed as Blattella germanica),75.5,5.7
IRHAILAAGDLYSRR,5.5,1.4
ISDFRAAIANYHYDA,216.2,18.6
IVINNAGILNDEKWE,10.8,4.3
KAAVHLLVAVKASKE,4.4,1.4
KAHSMRNSASMDLSS,16.4,4.3
KAIEEDLKHFNLKYE,5.7,2.9
KAIFIKCDVTNIPEF,9.3,7.1
KALQNAESEVAALNR,6.0,1.4
KCHLTNIACLLHNKY,22.6,5.7
KDDWENLEIDMIVDT,8.4,2.9
KEFANVVRVVRHTSK,3.3,2.9
KELVEKYGKGKAIFI,3.4,2.9
